Measured values: patent EP0091090A2, “Bipyridine substituted imidazolidene copper complex and its use in food-producing animals, and bipyridine, 2,2'-(2-imidazolidinylidene) di-copper complex and use in animals” (INTERNATIONAL MINERALS & CHEMICAL CORPORATION, priority 1982, dated 1983)

System: rumen fluid batch culture
Assay: Rumen fluid batch culture test: volatile fatty acid, gas (CH4 + H2), protein and amino acid accumulation (Example 2)
Assay type: cell-based, steers
Set-up: HFo (formate) / HAc (acetate) / HPr (propionate) / HiBu (isobutyrate) / HBu (butyrate) / HiVal (isovalerate) / Total / Caloric Value of H2 / Caloric Value of HFo / Caloric Value of HAc / Caloric Value of HPr / Caloric Value of HiBu / Caloric Value of HBu / Caloric Value of HiVal / Caloric Value of CH3: unit not given here
Settings: for Caloric Value of CH3 / Caloric Value of H2 / Caloric Value of HAc / Caloric Value of HBu / Caloric Value of HFo / Caloric Value of HPr / Caloric Value of HiBu / Caloric Value of HiVal / Caloric Value, Total (VFA's) / Total Cal in VFA & Gas: produced on Day 10; for CH4 produced on Day 10 / H2 produced on Day 10 / HAc (acetate) produced on Day 10 / HBu (butyrate) produced on Day 10 / HFo (formate) produced on Day 10 / HPr (propionate) produced on Day 10 / HiBu (isobutyrate) produced on Day 10 / HiVal (isovalerate) produced on Day 10 / Total VFA's produced on Day 10: total produced on Day 10
Procedure: The above Formula IV composition was tested to determine its effectiveness as a feed additive for ruminants. The initial tests were in rumen fluid batch culture systems to determine the effect of the compound on volatile fatty acid/methane ratios (VFA/CH4). […] Test Procedure: A 50/50 mixture of ground corn and ground alfalfa was used as the substrate for the subject rumen fluid batch culture test. The compound (Formula IV ) was present in the rumen fluid in three separate test samples at 8.33, 25 and 75 ppm, respectively. On day 1, rumen fluid was obtained from mature fistulated steers on 50/50 concentrate/roughage diets. The rumen fluid (RF) was strained through three layers of gauze cloth and equilibrated with C02 gas. Wheaton serum vials (125 ml) were prepared ahead with 20 ml continuous batch buffer and 100 mg 50/50 ground corn/ground alfalfa. Controls and compounds (dissolved in acetone) were set up according to desired levels. The vials were kept under C02 gas until 20 ml of the strained RF was added. The vials were sealed and incubated at 39°C for 24 hours in a hot water bath. On successive days, gas samples (0.1 ml) were drawn for gas chromatography analysis before transferring 20 ml of the batch culture to another vial containing 20 ml of buffer, 100 mg substrate, and the corresponding compound. The remaining 20 ml was inoculated with 2 ml 6N HC1 and centrifuged at 15,000 rpm for 15 minutes. Ether extracts were prepared for volatile fatty acid (VFA) analysis. Some minor adjustments were made in the termperatures on the Hewlett-Packard 5750 Gas-Liquid Chromatograph used for VFA analysis when the glass column used was changed from 1/4 inch diameter to 1/8 inch diameter. Injection Port = 220°C Column Oven = 170°C Flame Detector = 250°C Only 4 minutes was needed to record the sample instead of the previous 7 minutes.

[1] = all levels tested (8.33, 25 and 75 ppm), versus control

## 2,2'-(4,5-diphenyl-2H-imidazol-2-ylidene)bispyridine with CuCl2(1/1) [Formula IV Compound]
25 µg/ml, day 8
  CH4: 6 µ Moles
  H2: 17 µ Moles
  HAc (acetate): 20.38
  HBu (butyrate): 8.39
  HFo (formate): 2.20
  HPr (propionate): 14.71
  HiBu (isobutyrate): 2.73
  HiVal (isovalerate): 0
  Protein: 0 mg/mL
  Total: 48.40
25 µg/ml, day 9
  AA: 0.20 µ Moles/ml
  CH4: 28 µ Moles
  H2: 22 µ Moles
  HAc (acetate): 20.91
  HBu (butyrate): 5.82
  HFo (formate): 1.78
  HPr (propionate): 14.96
  HiBu (isobutyrate): 1.21
  HiVal (isovalerate): 0
  Protein: 0.03 mg/mL
  Total: 44.66
25 µg/ml, day 10
  AA: 0.30 µ Moles/ml
  CH4: 55 µ Moles
  H2: 8 µ Moles
  HAc (acetate): 21.76
  HBu (butyrate): 2.06
  HFo (formate): 1.00
  HPr (propionate): 13.79
  HiBu (isobutyrate): 0.01
  HiVal (isovalerate): 0
  Protein: 0 mg/mL
  Total: 38.62
25 µg/ml
  Caloric Value of CH3: 11.59
  Caloric Value of H2: 0.55
  Caloric Value of HAc: 94.73
  Caloric Value of HBu: 0
  Caloric Value of HFo: 0.28
  Caloric Value of HPr: 92.13
  Caloric Value of HiBu: 0
  Caloric Value of HiVal: 0
  Caloric Value, Total (VFA's): 187.14
  Total Cal in VFA & Gas: 199.28 cal
25 μg/ml
  CH4 produced on Day 10: 55
  H2 produced on Day 10: 8
  HAc (acetate) produced on Day 10: 452.4
  HBu (butyrate) produced on Day 10: 0
  HFo (formate) produced on Day 10: 4.40
  HPr (propionate) produced on Day 10: 252.4
  HiBu (isobutyrate) produced on Day 10: 0
  HiVal (isovalerate) produced on Day 10: 0
  Total VFA's produced on Day 10: 709.2
75 µg/ml, Day 10, initial feed gross energy 800 kcal
  Gross Cal Remaining in Feed: 350.70 cal
75 µg/ml, by day 10
  methane: inhibited completely
75 µg/ml, day 2
  AA: 0.18 µ Moles/ml
  CH4: 155 µ Moles
  H2: 0 µ Moles
  HAc (acetate): 33.48
  HBu (butyrate): 8.18
  HFo (formate): 0.95
  HPr (propionate): 11.10
  HiBu (isobutyrate): 0.95
  HiVal (isovalerate): 0.69
  Protein: 0 mg/mL
  Total: 55.34
75 µg/ml, day 3
  AA: 0.27 µ Moles/ml
  CH4: 71 µ Moles
  H2: 0 µ Moles
  HAc (acetate): 28.66
  HBu (butyrate): 15.10
  HFo (formate): 0.80
  HPr (propionate): 14.81
  HiBu (isobutyrate): 3.81
  HiVal (isovalerate): 0.44
  Protein: 0.04 mg/mL
  Total: 63.61
75 µg/ml, day 4
  CH4: 74 µ Moles
  H2: 0 µ Moles
  HAc (acetate): 27.47
  HBu (butyrate): 5.26
  HFo (formate): 1.29
  HPr (propionate): 18.71
  HiBu (isobutyrate): 0.95
  HiVal (isovalerate): 0.25
  Total: 53.92
75 µg/ml, day 5
  CH4: 74 µ Moles
  H2: 0 µ Moles
  HAc (acetate): 23.84
  HBu (butyrate): 4.59
  HFo (formate): 0.61
  HPr (propionate): 17.24
  HiBu (isobutyrate): 0.51
  HiVal (isovalerate): 0.26
  Total: 47.03
75 µg/ml, day 6
  AA: 0.20 µ Moles/ml
  CH4: 67 µ Moles
  H2: 0 µ Moles
  HAc (acetate): 25.01
  HBu (butyrate): 1.78
  HFo (formate): 0.51
  HPr (propionate): 16.43
  HiBu (isobutyrate): 0.39
  HiVal (isovalerate): 0.58
  Protein: 0.02 mg/mL
  Total: 44.68
75 µg/ml, day 7
  AA: 0.26 µ Moles/ml
  CH4: 3 µ Moles
  H2: 0 µ Moles
  HAc (acetate): 19.59
  HBu (butyrate): 9.9
  HFo (formate): 3.17
  HPr (propionate): 14.41
  HiBu (isobutyrate): 0.83
  HiVal (isovalerate): 0.10
  Protein: 0.01 mg/mL
  Total: 48.01
75 µg/ml, day 8
  AA: 0.31 µ Moles/ml
  CH4: 3 µ Moles
  H2: 0 µ Moles
  HAc (acetate): 17.86
  HBu (butyrate): 11.25
  HFo (formate): 3.52
  HPr (propionate): 14.08
  HiBu (isobutyrate): 2.61
  HiVal (isovalerate): 0
  Protein: 0 mg/mL
  Total: 49.31
75 µg/ml, day 9
  AA: 0.34 µ Moles/ml
  CH4: 0 µ Moles
  H2: 11 µ Moles
  HAc (acetate): 18.93
  HBu (butyrate): 9.21
  HFo (formate): 2.61
  HPr (propionate): 13.41
  HiBu (isobutyrate): 3.16
  HiVal (isovalerate): 0.26
  Protein: 0 mg/mL
  Total: 50.56
75 µg/ml, day 10
  AA: 0.47 µ Moles/ml
  CH4: 0 µ Moles
  H2: 14 µ Moles
  HAc (acetate): 18.71
  HBu (butyrate): 8.16
  HFo (formate): 2.52
  HPr (propionate): 14.57
  HiBu (isobutyrate): 3.74
  HiVal (isovalerate): 0.27
  Protein: 0 mg/mL
  Total: 47.97
75 µg/ml
  Caloric Value of CH3: 0
  Caloric Value of H2: 0.96
  Caloric Value of HAc: 77.39
  Caloric Value of HBu: 74.05
  Caloric Value of HFo: 3.06
  Caloric Value of HPr: 114.76
  Caloric Value of HiBu: 31.54
  Caloric Value of HiVal: 3.80
  Caloric Value, Total (VFA's): 304.60
  Total Cal in VFA & Gas: 305.56 cal
75 μg/ml
  CH4 produced on Day 10: 0
  H2 produced on Day 10: 14
  HAc (acetate) produced on Day 10: 369.6
  HBu (butyrate) produced on Day 10: 142.4
  HFo (formate) produced on Day 10: 48.8
  HPr (propionate) produced on Day 10: 314.4
  HiBu (isobutyrate) produced on Day 10: 86.4
  HiVal (isovalerate) produced on Day 10: 5.6
  Total VFA's produced on Day 10: 994.2
8.33 and 25 µg/ml
  Total energy in the end products: less than the control
8.33 and 75 µg/ml (not 25 µg/ml), versus control
  butyrate produced: more butyrate was produced
8.33 ppm
  methane: decreased slightly
25 and 75 ppm, first 6 days
  hydrogen production: no hydrogen production
  methane: slight decreases
25 and 75 ppm, seventh day
  hydrogen produced: some hydrogen produced
  methane: dropped drastically
75 ppm dosage level, Table 3
  increasing the number of calories available from the animals' feed: most effective amount
All dosage levels, Table 2
  shift in volatile fatty acids produced: desired shift in volatile fatty acids produced away from acetate towards propionate
[1]
  Acetate: decreased
  propionate: increased
Tests of Examples 2 and 3
  activity in rumen fluid batch culture tests: activity comparable to monensin
